Source: patent publication US8697031B2, “Dual function polymer micelles” (Case Western Reserve University, priority 2004, dated 2014)
Where no end group is shown, it is not given here.

System: SLK tumor endothelial cells
Experiment: Flow cytometry analysis of micelle uptake
Type: cell-based
Details: SLK cells pre-incubated with free blocking peptide at 9 mM, then co-incubated with micelles
Procedure: SLK cells were seeded at 125,000 cells/well in 6-well plates in 2 mL DMEM with 10% FBS. After 24 h, 1 mg of micelles (from 3.3 mg/ml micelle suspension) for each micelle formulation with different cRGD density (0, 5, 16, 76% cRGD) was added into each well and incubated at 37° C. for 2 h. Then, cells were washed, trypsinized and neutralized. After centrifugation at 1200 rpm for 5 min, cells were re-suspended in 1 mL PBS, followed by filtration and analysis using flow cytometry. […] In the control experiment, SLK cells were first incubated with a free blocking peptide, Ala-Ala-Arg-Gly-Asp-Tyr (AARGDY) (SEQ ID NO: 757), and then co-incubated with 76% cRGD-functionalized micelles.

In the case of AARGDY, the “inhibition of uptake of 76% cRGD-functionalized micelles” value is reported as roughly 100%.
